Common to all, as to test: inhibition of tumour cell growth, NCI panel, 48 h
For experiment [1], the system named is A549 NSCLC.
Experiment [2] concerns CAKI-1 renal.
The subject of experiment [3] is CCRF-CEM leukemia.
For experiment [4], the system named is HCC-2998 colon.
Experiment [5] deals with HCT-116 colon.
The subject of experiment [6] is HL-60(TB) leukemia.
The test system of experiment [7] is KM12 colon.
For experiment [8], the system named is LOX IMVI melanoma.
Experiment [9] relates to MALME-3M melanoma.
Experiment [10] deals with MDA-MB-231 breast.
The test system of experiment [11] is NCI-H226 lung.
The test system of experiment [12] is NCI/ADR-RES ovarian.
The subject of experiment [13] is OVCAR-3 ovarian.
The subject of experiment [14] is OVCAR-4 ovarian.
Experiment [15] has as its system OVCAR-5 ovarian.
The test system of experiment [16] is PC-3 prostate.
The test system of experiment [17] is SK-OV-3 ovarian.
Experiment [18] concerns TK-10 renal.
In experiment [19] the test system is U251 CNS.

Structures are written as SMILES.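 96-well plates; 48 h exposure; 5 concentrations. Endpoints by linear interpolation between flanking doses. Not reached: highest tested concentration assigned. TGI is the concentration that stops growth completely.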 Bounds are passed on as bounds.

Turning to `c1cncc(C2(c3cc4ccccc4[nH]3)COCO2)c1` (stereo unspecified), the TGI in experiment [1] is over 100 µM; in experiment [2], over 100 µM; in experiment [3], 56.6 µM; in [4], over 100 µM; in experiment [5] it was over 100 µM; in [6], over 100 µM. Besides, the TGI in [7], in [8], in experiment [9], in experiment [10], in experiment [11] and in [12] was over 100 µM throughout. The TGI in experiment [13], in experiment [14], in experiment [15], in experiment [16], in experiment [17] and in [18] was over 100 µM each time. The same molecule registered a TGI in experiment [19] of over 100 µM.
Consider `CC1(C)C2C=C(CCN3CCOCC3)CC1C2` (stereo unspecified), for which the TGI in experiment [1], in experiment [2], in [3], in [4], in [5] and in experiment [6] was over 100 µM in each case. The TGI in [7], in experiment [8], in experiment [9], in [10], in experiment [11] and in [12] was over 100 µM each time. The TGI in experiment [13], in [14], in experiment [15], in experiment [16], in experiment [17] and in [18] was over 100 µM in each case. The TGI in experiment [19] was over 100 µM.
Take `Cc1cc2c(cc1Cl)SC(NNC(=O)c1ccco1)=NS2(=O)=O`: the TGI in experiment [1], in experiment [2], in experiment [3], in [4], in [5] and in [6] was over 10 µM in each case. Further, the TGI in [7], in [8], in [9], in experiment [10], in experiment [11] and in [12] was over 10 µM throughout. Also, the TGI in experiment [13], in experiment [14], in experiment [15], in experiment [16], in experiment [17] and in experiment [18] was over 10 µM each time. In [19], this molecule returned a TGI of over 10 µM.
On to `CN(C)CCCNC(=O)c1c(O)c2ccccc2[nH]c1=O`, for which the TGI in [1], in experiment [2], in [3], in experiment [4], in [5] and in experiment [6] was over 100 µM in each case. The TGI in [7], in experiment [8], in experiment [9], in experiment [10], in experiment [11] and in experiment [12] was over 100 µM in each case. The TGI in experiment [13], in experiment [14], in experiment [15], in experiment [16], in experiment [17] and in [18] was over 100 µM each time.
For `O=c1ccn2n1Cc1ccccc1C2`, the TGI in experiment [1], in experiment [2], in experiment [3], in experiment [4], in [5] and in [6] was over 100 µM in each case. For the same molecule, the TGI in experiment [7], in [8], in experiment [9], in experiment [10], in [11] and in experiment [12] was over 100 µM throughout. Besides, the TGI in experiment [13], in experiment [14], in [15], in [16], in experiment [17] and in experiment [18] was over 100 µM each time. In addition, the TGI in experiment [19] was over 100 µM.
For `CC(=O)C1(Cc2cccc3ccccc23)S(=O)(=O)OCCOS1(=O)=O`, the TGI in experiment [2] is 30.1 µM; in experiment [3], over 100 µM; in [4] it was 31.6 µM; in experiment [5] it was 41 µM; in experiment [6] it was 41.4 µM; in [7], 28.8 µM. Besides, the TGI was 25.7 µM in [8]; 33 µM in experiment [9]; 29.6 µM in experiment [10]; 35.3 µM in experiment [11]; 61.2 µM in [12]; 36.4 µM in experiment [13]. Further, the TGI in experiment [14] was 75.9 µM; in experiment [15] it was 32.5 µM; in [16], 29.3 µM; in [17] it was 8.9 µM; in experiment [18] it was 39.6 µM; in experiment [19], 31.1 µM.
On to `O=C1C(N2CCN(c3ccccn3)CC2)=C(Cl)C(=O)c2ncccc21`, for which the TGI was over 10 µM in experiment [1]; 2.12 µM in [2]; 6.28 µM in experiment [3]; over 6.52 µM in experiment [4]; 3.13 µM in experiment [5]; 0.906 µM in experiment [6]. For the same molecule, the TGI is over 5.95 µM in experiment [7]; 5.35 µM in [8]; 2.75 µM in [9]; over 7.14 µM in experiment [10]; over 10 µM in experiment [11]; over 10 µM in experiment [12]. For the same molecule, the TGI in experiment [13] is 3.95 µM; in [14], 1.95 µM; in experiment [15], over 10 µM; in experiment [16] it was over 10 µM; in experiment [17], over 10 µM; in experiment [18], over 6.41 µM. Moreover, the TGI in experiment [19] was over 10 µM.
